Reference: patent US9994555B2, “Chromenone inhibitors of monocarboxylate transporters” (THE SCRIPPS RESEARCH INSTITUTE, priority 2015, dated 2018)

Test system: Raji (Burkitt's) lymphoma cells
Test: MTT assay for 4-day viability of Raji (Burkitt's) lymphoma cells
Assay type: cell-based
Conditions: Homo sapiens, 96 h, Raji (Burkitt's) lymphoma cells highly expressing MCT1, estimated EC50 given as bin, read-out: approximate potency (EC50)
Source text: Specific Examples of compounds of the invention, with estimated EC50 values determined using an MTT assay for 4-day viability of Raji (Burkitt's) lymphoma cells, a cell line known to highly express MCT1 and to be sensitive to small molecule MCT inhibitors,^4 are shown in Table 8. Assay protocols follow those described in the literature.^4 Other assays that are not described here but that are standard in the field, such as an assay for competitive inhibition of transport of radiolabeled lactic acid, an MCT substrate, may also be useful in establishing mechanism of action of these compounds.

Cc1cc(=O)c2c(OCCCO)cc(Oc3ccnc4ccccc34)cc2o1 [Example 1, 5-(3-hydroxypropoxy)-2-methyl-7-(quinolin-4-yloxy)-4H-chromen-4-one]
EC50: 1 to 10 µM

Cc1cc(=O)c2c(OCCCO)cc(OCc3cccc4ccccc34)cc2o1 [Example 2, 5-(3-hydroxypropoxy)-2-methyl-7-(naphthalen-1-ylmethoxy)-4H-chromen-4-one]
EC50: 1 to 10 µM

Cc1cc(=O)c2c(OCCCCO)cc(OCc3cccc4ccccc34)cc2o1 [Example 3, 5-(4-hydroxybutoxy)-2-methyl-7-(naphthalen-1-ylmethoxy)-4H-chromen-4-one]
EC50: 1 to 10 µM

Cc1cc(=O)c2c(OCC(O)CO)cc(Oc3ccnc4ccccc34)cc2o1 (centres unmarked) [Example 4, 5-(2,3-dihydroxypropoxy)-2-methyl-7-(quinolin-4-yloxy)-4H-chromen-4-one]
EC50: ≥ 10 µM

CC(C)c1cc(=O)c2c(OCCCCO)cc(OCc3cccc4ccccc34)cc2o1 [Example 5, 5-(4-hydroxybutoxy)-2-isopropyl-7-(naphthalen-1-ylmethoxy)-4H-chromen-4-one]
EC50: 0.1 to 1 µM

CC(C)c1cc(=O)c2c(OCCCO)cc(OCc3ccnc4ccccc34)cc2o1 [Example 6, 5-(3-hydroxypropoxy)-2-isopropyl-7-(quinolin-4-ylmethoxy)-4H-chromen-4-one]
EC50: 0.1 to 1 µM

CC(C)c1cc(=O)c2c(OCCCO)cc(OCc3cccc4ccccc34)cc2o1 [Example 7, 5-(3-hydroxypropoxy)-2-isopropyl-7-(naphthalen-1-ylmethoxy)-4H-chromen-4-one]
EC50: 0.1 to 1 µM

CC(C)c1cc(=O)c2c(OCc3ccccc3CO)cc(OCc3cccc4ccccc34)cc2o1 [Example 8, 5-((2-(hydroxymethyl)benzyl)oxy)-2-isopropyl-7-(naphthalen-1-ylmethoxy)-4H-chromen-4-one]
EC50: ≤ 0.1 µM

CC(C)c1cc(=O)c2c(OCc3ccccc3CO)cc(Oc3ccnc4ccccc34)cc2o1 [Example 9, 5-((2-(hydroxymethyl)benzyl)oxy)-2-isopropyl-7-(quinolin-4-yloxy)-4H-chromen-4-one]
EC50: ≤ 0.1 µM

CC(C)c1cc(=O)c2c(OCc3ccccc3CO)cc(OCc3cccnc3C(F)(F)F)cc2o1 [Example 10, 5-((2-(hydroxymethyl)benzyl)oxy)-2-isopropyl-7-((2-(trifluoromethyl)pyridin-3-yl)methoxy)-4H-chromen-4-one]
EC50: ≤ 0.1 µM

CC(C)c1cc(=O)c2c(OCc3ccccc3CO)cc(Oc3ncccc3C(F)(F)F)cc2o1 [Example 11, 5-((2-(hydroxymethyl)benzyl)oxy)-2-isopropyl-7-((3-(trifluoromethyl)pyridin-2-yl)oxy)-4H-chromen-4-one]
EC50: ≤ 0.1 µM

CC(C)c1cc(=O)c2c(OCc3ccccc3CO)cc(OCc3cccc(C(F)(F)F)c3)cc2o1 [Example 12, 5-((2-(hydroxymethyl)benzyl)oxy)-2-isopropyl-7-((3-(trifluoromethyl)benzyl)oxy)-4H-chromen-4-one]
EC50: ≤ 0.1 µM

CC(C)c1cc(=O)c2c(OCc3ccccc3CO)cc(OCc3ccccn3)cc2o1 [Example 13, 5-((2-(hydroxymethyl)benzyl)oxy)-2-isopropyl-7-(pyridin-2-ylmethoxy)-4H-chromen-4-one]
EC50: ≤ 0.1 µM

CC(C)c1cc(=O)c2c(OCc3ccccc3CO)cc(OCc3cccnc3)cc2o1 [Example 14, 5-((2-(hydroxymethyl)benzyl)oxy)-2-isopropyl-7-(pyridin-3-ylmethoxy)-4H-chromen-4-one]
EC50: ≤ 0.1 µM

CC(C)c1cc(=O)c2c(OCc3ccccc3CO)cc(OCc3ccncc3)cc2o1 [Example 15, 5-((2-(hydroxymethyl)benzyl)oxy)-2-isopropyl-7-(pyridin-4-ylmethoxy)-4H-chromen-4-one]
EC50: 0.1 to 1 µM

CC(C)c1cc(=O)c2c(OCc3ccccc3CO)cc(OCc3cncc(C(F)(F)F)c3)cc2o1 [Example 16, 5-((2-(hydroxymethyl)benzyl)oxy)-2-isopropyl-7-((5-(trifluoromethyl)pyridin-3-yl)methoxy)-4H-chromen-4-one]
EC50: ≤ 0.1 µM

CC(C)c1cc(=O)c2c(OCc3ccccc3CO)cc(Oc3ccncc3C(F)(F)F)cc2o1 [Example 17, 5-((2-(hydroxymethyl)benzyl)oxy)-2-isopropyl-7-((3-(trifluoromethyl)pyridin-4-yl)oxy)-4H-chromen-4-one]
EC50: ≤ 0.1 µM

CC(C)c1cc(=O)c2c(OCc3ccccc3CO)cc(OCc3cncs3)cc2o1 [Example 18, 5-((2-(hydroxymethyl)benzyl)oxy)-2-isopropyl-7-(thiazol-5-ylmethoxy)-4H-chromen-4-one]
EC50: 0.1 to 1 µM

CC(C)c1cc(=O)c2c(OCc3ccccc3CO)cc(OCc3cccc4cccnc34)cc2o1 [Example 19, 5-((2-(hydroxymethyl)benzyl)oxy)-2-isopropyl-7-(quinolin-8-ylmethoxy)-4H-chromen-4-one]
EC50: ≤ 0.1 µM

CC(C)c1cc(=O)c2c(OCc3ccccc3CO)cc(OCc3ccc4ccccc4n3)cc2o1 [Example 20, 5-((2-(hydroxymethyl)benzyl)oxy)-2-isopropyl-7-(quinolin-2-ylmethoxy)-4H-chromen-4-one]
EC50: ≤ 0.1 µM

CC(C)c1cc(=O)c2c(OCc3ccccc3CO)cc(OCc3ccc4ncccc4c3)cc2o1 [Example 21, 5-((2-(hydroxymethyl)benzyl)oxy)-2-isopropyl-7-(quinolin-6-ylmethoxy)-4H-chromen-4-one]
EC50: 0.1 to 1 µM

O=c1cc(C2CC2)oc2cc(OCc3cccc4ccccc34)cc(OCc3ccccc3CO)c12 [Example 22, 2-cyclopropyl-5-((2-(hydroxymethyl)benzyl)oxy)-7-(naphthalen-1-ylmethoxy)-4H-chromen-4-one]
EC50: 0.1 to 1 µM

O=c1cc(C2CC2)oc2cc(OCc3cccnc3C(F)(F)F)cc(OCc3ccccc3CO)c12 [Example 23, 2-cyclopropyl-5-((2-(hydroxymethyl)benzyl)oxy)-7-((2-(trifluoromethyl)pyridin-3-yl)methoxy)-4H-chromen-4-one]
EC50: ≤ 0.1 µM

CC(C)c1cc(=O)c2c(OCc3ccccc3CO)cc(OCc3ccnc4ccccc34)cc2o1 [Example 24, 5-((2-(hydroxymethyl)benzyl)oxy)-2-isopropyl-7-(quinolin-4-ylmethoxy)-4H-chromen-4-one]
EC50: ≤ 0.1 µM

CC(C)c1cc(=O)c2c(OCc3ccccc3CO)cc(OCc3cnc(Cl)c4ccccc34)cc2o1 [Example 25, 7-((1-chloroisoquinolin-4-yl)methoxy)-5-((2-(hydroxymethyl)benzyl)oxy)-2-isopropyl-4H-chromen-4-one]
EC50: ≤ 0.1 µM

O=c1cc(-c2ccccc2)oc2cc(Oc3ccnc4ccccc34)cc(OCCCO)c12 [Example 26, 5-(3-hydroxypropoxy)-2-phenyl-7-(quinolin-4-yloxy)-4H-chromen-4-one]
EC50: 1 to 10 µM

O=c1cc(-c2ccccc2)oc2cc(Oc3ccnc4ccccc34)cc(OCC(O)CO)c12 (centres unmarked) [Example 27, 5-(2,3-dihydroxypropoxy)-2-phenyl-7-(quinolin-4-yloxy)-4H-chromen-4-one]
EC50: ≥ 10 µM

O=c1cc(-c2ccccc2)oc2cc(OCc3cccc4ccccc34)cc(OCCCO)c12 [Example 28, 5-(3-hydroxypropoxy)-7-(naphthalen-1-ylmethoxy)-2-phenyl-4H-chromen-4-one]
EC50: 1 to 10 µM

O=c1cc(-c2ccccc2)oc2cc(OCc3cccc4ccccc34)cc(OCCCCO)c12 [Example 29, 5-(4-hydroxybutoxy)-7-(naphthalen-1-ylmethoxy)-2-phenyl-4H-chromen-4-one]
EC50: 1 to 10 µM
